ChEMBL document CHEMBL3758149, “3-(Piperidin-4-ylmethoxy)pyridine Containing Compounds Are Potent Inhibitors of Lysine Specific Demethylase 1” (J Med Chem, 2016)
pIC50, pKi: −log10 of the molar value.

Biological target: T1, Lysine-specific histone demethylase 1A (Homo sapiens, UniProt O60341)

Row | SMILES | pIC50
1 | CN1CCN(C(=O)CN[C@H]2C[C@@H]2c2ccc(-c3ccc(F)nc3)cc2)CC1 (relative stereo) | 7.11

Biological target: T2, Amine oxidase [flavin-containing] A (Homo sapiens, UniProt P21397)
T2 sequence (P21397 whole entry): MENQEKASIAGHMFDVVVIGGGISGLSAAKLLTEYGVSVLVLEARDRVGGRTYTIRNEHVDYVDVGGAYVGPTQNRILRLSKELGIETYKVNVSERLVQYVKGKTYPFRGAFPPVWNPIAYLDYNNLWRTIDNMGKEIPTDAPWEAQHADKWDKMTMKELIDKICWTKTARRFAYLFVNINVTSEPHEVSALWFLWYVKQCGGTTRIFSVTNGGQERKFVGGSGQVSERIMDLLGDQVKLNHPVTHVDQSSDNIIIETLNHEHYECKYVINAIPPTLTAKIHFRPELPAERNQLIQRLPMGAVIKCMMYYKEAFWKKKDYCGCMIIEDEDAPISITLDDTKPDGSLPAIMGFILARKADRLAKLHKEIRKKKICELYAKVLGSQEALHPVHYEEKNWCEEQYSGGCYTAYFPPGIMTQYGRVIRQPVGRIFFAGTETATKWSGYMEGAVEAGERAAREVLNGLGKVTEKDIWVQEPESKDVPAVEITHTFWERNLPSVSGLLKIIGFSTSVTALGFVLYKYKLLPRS
Description: Inhibition of recombinant human MAO-A after 60 mins MAO-glo assay

Row | SMILES | pKi
2 | N#Cc1ccc(-c2cc(OCC3CCNCC3)cnc2-c2ccc(OC(F)(F)F)cc2)cc1 | < 4.30
3 | N#Cc1ccc(-c2cc(OCC3CCNCC3)cnc2-c2ccc(C(F)(F)F)cc2)cc1 | < 4.30
4 | N#Cc1ccc(-c2cc(OCC3CCNCC3)cnc2-c2ccccc2)cc1 | < 4.30
5 | Cc1ccc(-c2ncc(OCC3CCNCC3)cc2-c2ccc(C#N)cc2)cc1 | < 4.30

Biological target: T1, Lysine-specific histone demethylase 1A
Remark: another data set of the same source

Row | SMILES | pKi
6 | Cc1ccc(-c2ncc(OCC3CCNCC3)cc2-c2ccc(C(=O)N3CCNCC3)cc2)cc1 | < 4.30
7 | N#Cc1ccc(-c2nc(OCC3CCNCC3)cnc2-c2ccc(Br)cc2)cc1 | 6.27
8 | C#Cc1ccc(-c2cc(OCC3CCNCC3)cnc2-c2ccc(C)cc2)cc1 | < 4.30
9 | Cc1ccc(-c2ncc(OCC3CCNCC3)cc2-c2ccc(C(=O)O)cc2)cc1 | < 4.30
10 | N#Cc1ccc(-c2ncc(OCC3CCNCC3)nc2-c2ccc(Br)cc2)cc1 | 4.78
11 | Brc1ccc(-c2ncc(OCC3CCNCC3)nc2-c2ccc(Br)cc2)cc1 | 4.58
12 | Cc1ccc(-c2ncc(OCC3CCNCC3)cc2-c2ccc(C(=O)NC3CC3)cc2)cc1 | < 4.30
13 | Cc1ccc(-c2ncc(OCC3CCNCC3)cc2-c2ccc(C(=O)N3CCCCC3)cc2)cc1 | < 4.30
14 | c1ccc(-c2cc(OCC3CCNCC3)cnc2-c2ccccc2)cc1 | < 4.30
15 | Cc1ccc(-c2ncc(O)cc2-c2ccc(C#N)cc2)cc1 | < 4.30
16 | Cc1ccc(-c2ncc(OCC3CCNCC3)cc2-c2ccc(CO)cc2)cc1 | < 4.30
17 | c1ccc(-c2ccc(OCC3CCNCC3)cn2)cc1 | < 4.30
18 | Cc1ccc(-c2ncc(OCc3ccccc3)cc2-c2ccc(C#N)cc2)cc1 | < 4.30
19 | N#Cc1ccc(-c2ncc(OCC3CCNCC3)nc2-c2ccc(C#N)cc2)cc1 | 5.04
20 | Cc1ccc(-c2ncc(OCC3CCNCC3)cc2-c2ccc(C(=O)N3CCOCC3)cc2)cc1 | < 4.30
21 | Cc1ccc(-c2ncc(OCC3CCNCC3)cc2-c2ccc(CN3CCCCC3)cc2)cc1 | < 4.30
